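Where inhibition never reached the appropriate level, the endpoint shown equals the highest concentration tested. Otherwise, values were interpolated linearly from a five-concentration, 48-hour dose response in 96-well plates. The concentration for 50% growth inhibition is given as GI50. At the TGI there is no net growth.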
How the values were obtained:
Assay in all cases: growth of human tumour cells (NCI), 48 h
[1] = tested on: DU-145 prostate
[2] = tested on: HOP-62 NSCLC
[3] = tested on: OVCAR-3 ovarian
[4] = tested on: NCI-H522 lung
[5] = tested on: HT29 colon
[6] = tested on: UACC-62 melanoma
[7] = tested on: OVCAR-5 ovarian
[8] = tested on: SK-MEL-28 melanoma
[9] = tested on: K-562 leukemia
[10] = tested on: SNB-75 CNS
[11] = tested on: SF-539 CNS
[12] = tested on: NCI-H460 lung
[13] = tested on: SF-295 CNS
[14] = tested on: HCC-2998 colon
[15] = tested on: SN12C renal
[16] = tested on: A549 NSCLC
[17] = tested on: MCF7 breast
[18] = tested on: A498 renal
[19] = tested on: UO-31 renal
[20] = tested on: HL-60(TB) leukemia
[21] = tested on: M14 melanoma
[22] = tested on: CCRF-CEM leukemia
[23] = tested on: NCI-H23 lung
[24] = tested on: OVCAR-4 ovarian
[25] = tested on: NCI-H226 lung
[26] = tested on: 786-0 renal
[27] = tested on: RXF 393 renal
[28] = tested on: OVCAR-8 ovarian
[29] = tested on: RPMI-8226 leukemia
[30] = tested on: TK-10 renal
[31] = tested on: MALME-3M melanoma
[32] = tested on: HCT-15 colon
[33] = tested on: MDA-MB-435
[34] = tested on: KM12 colon
[35] = tested on: UACC-257 melanoma
[36] = tested on: SK-OV-3 ovarian
[37] = tested on: SK-MEL-5 melanoma
[38] = tested on: HCT-116 colon
[39] = tested on: SNB-19 CNS
[40] = tested on: SW-620 colon
[41] = tested on: PC-3 prostate
[42] = tested on: LOX IMVI melanoma
[43] = tested on: ACHN renal
[44] = tested on: MOLT-4 leukemia
[45] = tested on: COLO 205 colon
[46] = tested on: HOP-92 NSCLC
[47] = tested on: IGROV1 ovarian
[48] = tested on: BT-549 breast
[49] = tested on: U251 CNS
[50] = tested on: SF-268 CNS
[51] = tested on: T-47D breast
[52] = tested on: SK-MEL-2 melanoma
[53] = tested on: SR leukemia
[54] = tested on: MDA-MB-231 breast
[55] = tested on: NCI/ADR-RES ovarian

Q: Which results are given for `COc1cc(-c2cncn2-c2ccc(-c3nc4ccc(F)cc4s3)cc2)ccc1F`?
A: GI50 [1]: 14.3 µM; TGI [1]: 73.3 µM; GI50 [2]: 40.7 µM; TGI [2]: > 100 µM; GI50 [3]: 5.71 µM; TGI [3]: 37.3 µM; GI50 [4]: 9.9 µM; TGI [4]: 37.2 µM; GI50 [5]: 10.8 µM; TGI [5]: > 100 µM; GI50 [6]: 8.67 µM; TGI [6]: > 100 µM; GI50 [7]: > 100 µM; TGI [7]: > 100 µM; GI50 [8]: 35.1 µM; TGI [8]: > 100 µM; GI50 [9]: 3.93 µM; TGI [9]: > 100 µM; GI50 [10]: 20.6 µM; TGI [10]: 52.2 µM; GI50 [11]: 75.9 µM; TGI [11]: > 100 µM; GI50 [12]: 5.7 µM; TGI [12]: 20.7 µM; GI50 [13]: 12.7 µM; TGI [13]: > 100 µM; GI50 [14]: > 100 µM; TGI [14]: > 100 µM; GI50 [15]: 31.9 µM; TGI [15]: > 100 µM; GI50 [16]: 12.3 µM; TGI [16]: > 100 µM; GI50 [17]: 23.5 µM; TGI [17]: > 100 µM; GI50 [18]: 0.0432 µM; TGI [18]: 16.9 µM; GI50 [19]: 16.5 µM; TGI [19]: > 100 µM; GI50 [20]: 2.5 µM; TGI [20]: 7.37 µM; GI50 [21]: 33.4 µM; TGI [21]: > 100 µM; GI50 [22]: 6.92 µM; TGI [22]: > 100 µM; GI50 [23]: 8.25 µM; TGI [23]: > 100 µM; GI50 [24]: 11.4 µM; TGI [24]: > 100 µM; GI50 [25]: 49.3 µM; TGI [25]: > 100 µM; GI50 [26]: 36.1 µM; TGI [26]: > 100 µM; GI50 [27]: 13.5 µM; TGI [27]: > 100 µM; GI50 [28]: 15.2 µM; TGI [28]: > 100 µM; GI50 [29]: 4.11 µM; TGI [29]: > 100 µM; GI50 [30]: 38.8 µM; TGI [30]: > 100 µM; GI50 [31]: 11.1 µM; TGI [31]: > 100 µM; GI50 [32]: 82.3 µM; TGI [32]: > 100 µM; GI50 [33]: 17.1 µM; TGI [33]: > 100 µM; GI50 [34]: 6.4 µM; TGI [34]: > 100 µM; GI50 [35]: 4.11 µM; TGI [35]: > 100 µM; GI50 [36]: > 100 µM; TGI [36]: > 100 µM; GI50 [37]: 12.1 µM; TGI [37]: > 100 µM; GI50 [38]: 4.36 µM; TGI [38]: 38.7 µM; GI50 [39]: > 100 µM; TGI [39]: > 100 µM; GI50 [40]: 7.81 µM; TGI [40]: > 100 µM; GI50 [41]: 3.47 µM; TGI [41]: > 100 µM; GI50 [42]: 35.9 µM; TGI [42]: > 100 µM; GI50 [43]: 29.1 µM; TGI [43]: > 100 µM; GI50 [44]: 3.41 µM; TGI [44]: > 100 µM; GI50 [45]: 56.8 µM; TGI [45]: > 100 µM; GI50 [46]: 5.47 µM; TGI [46]: 91.8 µM; GI50 [47]: 15.4 µM; TGI [47]: 47.7 µM; GI50 [48]: 11.5 µM; TGI [48]: 79 µM; GI50 [49]: 12.6 µM; TGI [49]: > 100 µM; GI50 [50]: 31.2 µM; TGI [50]: > 100 µM; GI50 [51]: 7.98 µM; TGI [51]: > 100 µM; GI50 [52]: 39.7 µM; TGI [52]: > 100 µM; GI50 [53]: 4.99 µM; TGI [53]: > 100 µM; GI50 [54]: 32.2 µM; TGI [54]: > 100 µM; GI50 [55]: 30.6 µM; TGI [55]: > 100 µM

Reference: PubChem BioAssay (NCI)
